We go through one compound from patent publication US20160296644A1, “ANTICANCER DRUG, COMPRISING A COPPER RADIOISOTOPE” (priority 2013, published 2016).

For assay [1], the system named is solid tumours, neuroendocrine tumours, melanomas, leukaemias and lymphomas. The experiment in a line: Therapeutic effectiveness in cancer pathologies. To be noted: solid tumours (pancreas, prostate, brain, breast, ovary, head-neck, oesophagus, stomach, intestines, colon, liver, lung).
A further assay deals with DNA of the cancer cell. The assay is described as follows: Laboratory experimental tests of Auger radioactive effect on cancer cells. To be noted: dosage 1.5 Bq for each cell. The procedure:
Said dosage is equal to a 1.5 Bq (Becquerel) for each cell, a quantity such that the therapeutic effectiveness of the drug is carried out through the expression of the toxicity thereof only inside the nucleus, achieving a true target therapy.

The next assay deals with amyloid plaques. The experiment in a line: Use against Alzheimer's disease (radiotracer / therapeutic agent). From the text:
In fact, it is capable of binding to the amyloid plaques, the accumulation whereof within the nerve cells characterises the presence of the pathology, and catalyses its formation process. By crossing the blood-brain barrier, the deposit of the subject drug is suitably identified inside said amyloid plaques, providing a diagnostic feedback beyond all doubts.
In fact, the drug, by binding to said amyloid plaques, initially stabilises the growth thereof, to then slower it by braking such “drug-plaque” bonds.

Each structure is given as a SMILES string.

For the compound `[64Cu+2].[Cl-].[Cl-]` [64CuCl2, copper-64 chloride], in assay [1], the “effectiveness as a therapeutic agent for cancer pathologies” value is “effective”. In the assay on DNA of the cancer cell, the “Auger radioactive effect on DNA of the cancer cell” value was “capable of destroying the DNA of the cancer cell” and the “volume of the tumoural lesions in solid tumours” value is recorded as “reducing the volume of the tumoural lesions in solid tumours”. Moreover, in the assay with amyloid plaques (average dose 3,700 MBq), the “therapeutic agent against neuronal cells affected by the Alzheimer's disease” value is “carries out the function of therapeutic agent”. The “radiotracer for the diagnosis of the Alzheimer's disease” value in the assay with amyloid plaques (average dose of 370 MBq) was “capable of acting as a radiotracer”.
